# Reference: patent publication US9408871B2, “Methods for inhibiting complement activation and uses thereof” (THE UNIVERSITY OF BRITISH COLUMBIA, priority 2013, dated 2016)
# Tests used:
# [1] = test system: terminal pathway (TP) of complement; test: serum-based terminal pathway (TP) hemolytic assay (2% NHS, C5b,6, chicken erythrocytes); format: cell-based, human; conditions: 100 μM (based on the monomeric form)
# Description: Erythrocyte lysis assays were used to measure complement-mediated hemolytic activity. Erythrocyte (RBC) lysis assays as previously described^18,37 were used to measure complement activity. For alternative pathway assays and for total hemolytic activity assays, unsensitized rabbit erythrocytes were used. Chicken erythrocytes were used for the terminal pathway assays.
# Erythrocytes were washed three times in GVB with the reaction buffers as indicated, and counted using the Advia 120 Hematology System from Siemens (Siemens, Erlangen, Germany). Reactions in 300 μL were allowed to proceed for 30 min at 37° C., after which unlysed cells were pelleted by centrifugation at 600×g. Erythrocyte lysis, reflected by the released hemoglobin in the supernatant, was quantified by measuring the absorbance at 405 nm using the Mithras LB 940 microplate reader from Berthold Technologies (Bad Wildbad, Germany). Percent lysis was determined relative to the control of 100% lysis with H2O. For total hemolytic and terminal pathway (TP) assays, the concentrations of NHS and C5b,6 to initiate complement activation were established from pilot studies to obtain ˜70-80% erythrocyte lysis at 30 min.
# For serum-based terminal pathway (TP) hemolytic assays, components were diluted in GVB containing 10 mM EDTA (GVB-E), the latter added to prevent upstream complement activation and generation of endogenous C5b,6. 2% NHS was used as the source of C7, C8, and C9, and hemolysis of chicken erythrocytes (cRBC) (3.3×10^8 cells/mL) was initiated by addition of exogenous purified C5b,6, the concentration of which was determined from pilot studies to yield ˜70-80% lysis at 30 min. No C5b,6 activity was detected in the NHS prior to initiating the reaction. For some experiments, instead of NHS, purified terminal pathway complement components were used in the TP assays. In these assays, in a final volume of 300 uL GVB, lysis was achieved by the sequential addition of the following components: cRBC (3.3×10^8 cells/mL), C5b,6 (20 μM), C7 (15 nM), C8 (10 nM), and C9 (25 nM). The unlysed cell pellet was removed by centrifugation and lysis was measured immediately after the 30-minute reaction. A standard curve for the terminal pathway assay using serum as the source of complement (FIG. 2) was generated using a fixed serum concentration at 2%, and increasing concentrations of purified C5b,6 dose-dependently lysed chicken erythrocytes after 30 min at 37° C. […] of purified C5b,6 was therefore used to fix baseline lysis at ˜80% to allow assessment of the inhibitory effects of polyphosphate in serum.
# TP activity in NHS(2%), measured by lysis of cRBC, was initiated by adding a limiting amount of exogenous purified C5b,6 (250 pM) to achieve 70-80% lysis after 30 min. A molar excess of EDTA was used to prevent upstream activation of complement and generation of endogenous C5b,6. In the absence of C5b,6, there was no detectable complement-mediated cRBC lysis. P1 at concentrations ranging from 0.1 to 1000 μM, had no effect on complement-mediated hemolysis in NHS via the TP (FIG. 5A). By contrast, polyphosphate>1000 inhibited the TP in serum in a concentration-dependent manner, with an IC50 of ˜10 μM polyphosphate>1000 (dotted lines) (calculated based on monomeric phosphate).
# [2] = biological target: T1, C1-esterase inhibitor (C1-inh) (Homo sapiens, UniProt P05155); test: C1s-mediated cleavage of C4 in the presence of C1-inh (SDS-PAGE); format: biochemical; conditions: 10-500 μM, 2.5 nM C1-inh
# T1 sequence (P05155 23-500): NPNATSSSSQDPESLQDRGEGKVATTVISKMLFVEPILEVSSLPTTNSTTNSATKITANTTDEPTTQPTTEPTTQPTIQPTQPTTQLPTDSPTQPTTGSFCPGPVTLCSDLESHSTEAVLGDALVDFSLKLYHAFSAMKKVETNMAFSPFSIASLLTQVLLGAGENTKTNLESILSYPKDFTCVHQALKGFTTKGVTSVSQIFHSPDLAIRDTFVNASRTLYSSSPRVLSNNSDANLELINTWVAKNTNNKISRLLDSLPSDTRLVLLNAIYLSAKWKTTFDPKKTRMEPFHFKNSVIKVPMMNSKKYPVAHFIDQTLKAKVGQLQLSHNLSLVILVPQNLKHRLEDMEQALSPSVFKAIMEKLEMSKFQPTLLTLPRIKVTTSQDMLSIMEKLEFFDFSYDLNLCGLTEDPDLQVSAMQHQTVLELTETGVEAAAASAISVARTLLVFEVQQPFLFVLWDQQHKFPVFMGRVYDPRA
# Method: We tested whether polyP affects the inhibitory properties of C1-inh on C1s-mediated cleavage and activation of complement factor C4 and C2. SDS-PAGE followed by coomassie staining of gels was used to monitor cleavage of C4 by C1s in the presence/absence of C1-inh and/or polyP in a purified system.
# 2.5 nM C1s (reaction 1) or 2.5 nM C1-inh (reaction 2), and 300 μM polyP were incubated in 20 mM Hepes, 0.15 M NaCl, pH 7.5, 0.01% Tween buffer for 90 minutes at 37° C. 2.5 nM C1-inh (reaction 1) or 0.5 nM C1s (reaction 2) was added and incubated for 30 minutes at 37° C. 1.5 μM C4 was added and incubated for 5 minutes at 37° C. The reactions were quenched with 5× loading buffer and β-ME. Samples were taken and run on an SDS-PAGE 8% gel (FIG. 15B).
# Briefly, 2.5 nM C1s with 5-300 μM of polyP130 (reaction 1; FIG. 16A) or polyP1000 (reaction 2; FIG. 16B) were incubated in 20 mM Hepes, 0.15 M NaCl, pH 7.5, 0.01% Tween buffer for 90 minutes at 37° C. 2.5 nM C1s was added and incubated for 30 minutes at 37° C. 1.5 μM C4 was added and incubated for 5 minutes at 37° C. The reactions were quenched with 5× loading buffer and β-ME.
# Briefly, 2.5 nM C1s with 10-500 μM of polyP14, polyP60, polyP130, polyP1000 were incubated in 20 mM Hepes, 0.15 M NaCl, pH 7.5, 0.01% Tween buffer for 90 minutes at 37° C. 2.5 nM C1s was added and incubated for 30 minutes at 37° C. […]
effect of polyP size on C1-inh (C4 cleavage by C1s) [2],Compound,effect on TP hemolytic activity at equivalent concentration [1]
had no effect on C1-inh,"O=P([O-])([O-])OP(=O)([O-])[O-].[Na+].[Na+].[Na+].[Na+] [P2, diphosphate (Na4P2O7)]",had no effect
had no effect on C1-inh,"O=P([O-])([O-])OP(=O)([O-])OP(=O)([O-])[O-].[Na+].[Na+].[Na+].[Na+].[Na+] [P3, triphosphate (Na5P3O10)]",had no effect
